Results on 35 molecules are retold here after patent US8168651B2, “Protein kinase modulators” (Cylene Pharmaceuticals, Inc., priority 2008, dated 2012).

Structures are written as SMILES.

The target of one assay is recombinant human CK2 (Homo sapiens (Human), UniProt P68400). As to the kind of experiment: CK2 assay (cell-free, 33P-ATP filter plate). It is filed as biochemical. Conditions: 500 nM compound, cell-free assay; read-out: CK2: % inh 500 nM.
For assay [1], the system named is HCT-116 human colorectal carcinoma cells. As to the kind of experiment: Cell-proliferation assay using Alamar Blue dye.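 Note: cells exposed to compound for about 4 days, then Alamar Blue added and dye fluorescence read after about 4 h, compared with medium-only control wells.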 It is filed as cell-based. Conditions: Homo sapiens, HCT-116, second HCT-116 column (c8); read-out: HCT-116 (uM) cell proliferation modulatory activity. (Alamar Blue is a resazurin reagent that responds to reducing activity.)
The target of the next assay is recombinant human PIM1 (Homo sapiens (Human), UniProt P11309). Nature of the assay: PIM-1 kinase activity in cell-free in vitro assay. In kind it is biochemical. Conditions: cell-free assay; for inhibition at 0.5 µM: 500 nM compound, read-out: PIM-1: % inh 500 nM.
A further assay concerns K-562. As to the kind of experiment: Cell proliferation modulatory activity, K-562. It is filed as cell-based. The note with it: Homo sapiens, K562; K-562 cells.
The test system of a further assay is MV-4-11. As to the kind of experiment: Cell proliferation modulatory activity, MV-4-11. It is filed as cell-based. The note with it: Homo sapiens, MV4-11; MV-4-11 cells.

Sequence of recombinant human PIM1 (P11309 whole entry): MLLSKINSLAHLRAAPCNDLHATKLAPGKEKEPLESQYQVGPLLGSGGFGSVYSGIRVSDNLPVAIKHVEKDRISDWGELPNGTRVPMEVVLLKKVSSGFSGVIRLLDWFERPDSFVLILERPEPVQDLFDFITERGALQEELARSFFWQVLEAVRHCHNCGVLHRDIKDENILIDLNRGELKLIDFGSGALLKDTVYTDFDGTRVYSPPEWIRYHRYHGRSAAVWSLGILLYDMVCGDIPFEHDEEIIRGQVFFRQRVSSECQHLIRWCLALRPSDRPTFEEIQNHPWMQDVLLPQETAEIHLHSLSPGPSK
Sequence of recombinant human CK2 (P68400 whole entry): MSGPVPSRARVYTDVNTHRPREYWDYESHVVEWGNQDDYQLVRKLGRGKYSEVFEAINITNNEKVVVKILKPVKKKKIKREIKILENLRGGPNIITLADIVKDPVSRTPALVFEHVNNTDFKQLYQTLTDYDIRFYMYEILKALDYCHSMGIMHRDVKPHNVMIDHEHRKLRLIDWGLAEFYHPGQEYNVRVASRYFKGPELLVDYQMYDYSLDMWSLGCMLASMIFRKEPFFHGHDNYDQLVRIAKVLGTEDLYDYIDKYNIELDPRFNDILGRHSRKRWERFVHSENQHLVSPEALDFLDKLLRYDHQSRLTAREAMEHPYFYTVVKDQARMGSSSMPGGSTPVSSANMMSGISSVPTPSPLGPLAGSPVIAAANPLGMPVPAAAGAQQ
Sequence of recombinant human CK2 (P67870 whole entry partner): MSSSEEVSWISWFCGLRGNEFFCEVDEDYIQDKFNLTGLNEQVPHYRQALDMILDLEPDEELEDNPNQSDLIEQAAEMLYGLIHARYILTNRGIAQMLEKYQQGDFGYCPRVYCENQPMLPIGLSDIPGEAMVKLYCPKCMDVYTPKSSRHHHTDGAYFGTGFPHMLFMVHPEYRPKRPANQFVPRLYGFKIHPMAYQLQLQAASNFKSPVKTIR

Take `N#Cc1ccc2c(c1)nc(N1CCN(c3ccccn3)CC1)c1ccsc12`: the values for the inhibition at 0.5 µM at recombinant human CK2 and at recombinant human PIM1 were 7.66% and 11%, respectively. The IC50 (in assay [1]; in the assay on K-562; with MV-4-11) was more than 10 µM throughout.

`N#Cc1ccc2c(c1)nc(Nc1cccc(C(F)(F)F)c1)c1cscc12`: the values for the inhibition at 0.5 µM at recombinant human CK2 and at recombinant human PIM1 were -2.65% and -33.2%, respectively. For the same molecule, the IC50 (in assay [1]; with K-562; in the assay on MV-4-11) was more than 10 µM in each case.

With `CC(C)(C)OC(=O)N1CCCC1CNc1nc2cc(-c3nnn[nH]3)ccc2c2sccc12` (centres unmarked), the inhibition at 0.5 µM on recombinant human CK2 was 27%; on recombinant human PIM1, 35%. The IC50 (in assay [1]; in the assay on K-562; with MV-4-11) was more than 10 µM each time.

As for `CC(C)(C)OC(=O)NC1CCN(c2nc3cc(C#N)ccc3c3sccc23)C1` (centres unmarked), the figures for the inhibition at 0.5 µM at recombinant human CK2 and on recombinant human PIM1 were 11% and 10%, respectively. Further, the IC50 (in assay [1]; in the assay on K-562; in the assay on MV-4-11) was more than 10 µM in each case.

As for `O=C(O)c1ccc2c(c1)nc(Nc1ccc(F)c(Cl)c1)c1cccnc12`, the inhibition at 0.5 µM on recombinant human CK2 was 19.6%; on recombinant human PIM1, 22.1%. The IC50 (in assay [1]; with K-562; in the assay with MV-4-11) was more than 10 µM in each case.

Consider `CCN1CCCC1CNc1nc2cc(-c3nnn[nH]3)ccc2c2sccc12` (centres unmarked), for which the figures for the inhibition at 0.5 µM at recombinant human CK2 and on recombinant human PIM1 were 55.7% and 103%, respectively. Further, the IC50 in assay [1] worked out at 0.397 µM; at recombinant human PIM1, 0.098 µM; in the assay with K-562 it was 0.175 µM; in the assay with MV-4-11, 0.174 µM.

With `N#Cc1ccc2c(c1)[nH]c(=O)c1cscc12`, the inhibition at 0.5 µM at recombinant human CK2 is -0.336%; at recombinant human PIM1, -26.7%. For the same molecule, the IC50 (in assay [1]; in the assay on K-562; with MV-4-11) was more than 10 µM in each case.

With `c1cc2c(NCCN3CCCCC3)nc3cc(-c4nnn[nH]4)ccc3c2s1`, the inhibition at 0.5 µM on recombinant human CK2 is 37.1%; at recombinant human PIM1 it was 81.1%. In addition, the IC50 in assay [1] was more than 10 µM; at recombinant human PIM1, 0.313 µM; in the assay on K-562, more than 10 µM; with MV-4-11, more than 10 µM.

On to `O=C(O)c1ccc2c(c1)nc(Nc1cccc3ncccc13)c1ccncc12`, for which the inhibition at 0.5 µM at recombinant human CK2 came out at 101%; on recombinant human PIM1 it was 79.1%. In addition, the IC50 in assay [1] is more than 10 µM; at recombinant human PIM1, 0.281 µM; in the assay with K-562 it was more than 10 µM; with MV-4-11, more than 10 µM.

On to `CN(c1ccccc1)c1nc2cc(C(=O)O)ccc2c2ccncc12`, for which the inhibition at 0.5 µM on recombinant human CK2 worked out at 15.3%; on recombinant human PIM1 it was 56.8%. Besides, the IC50 was more than 10 µM in assay [1], 0.602 µM at recombinant human PIM1, more than 10 µM with K-562 and more than 10 µM in the assay on MV-4-11.

As to `Fc1ccc(Nc2nc3cc(-c4nnn[nH]4)ccc3c3cscc23)cc1Cl`, the results for the inhibition at 0.5 µM on recombinant human CK2 and at recombinant human PIM1 were 51.1% and 14.2%, respectively. Besides, the values for the IC50 (in assay [1]; with K-562; with MV-4-11) were more than 10 µM, more than 10 µM and 5.71 µM, respectively.

Take `CN(C)CCNc1nc2cc(C#N)ccc2c2sc(Br)cc12`: the values for the inhibition at 0.5 µM at recombinant human CK2 and at recombinant human PIM1 were -7.27% and 12.1%, respectively. Moreover, the IC50 in assay [1] came out at 0.704 µM; in the assay with K-562, 0.719 µM; in the assay on MV-4-11 it was 0.588 µM.

Turning to `CN(C)CCNc1nc2cc(C(=O)NC3CCCCC3)ccc2c2sccc12`, the inhibition at 0.5 µM on recombinant human CK2 was -10.6%; on recombinant human PIM1, -3.1%. Besides, the IC50 (in assay [1]; with K-562; in the assay with MV-4-11) was more than 10 µM in each case.

`CN(CCc1ccccn1)c1nc2cc(C(=O)O)ccc2c2cnccc12`: the inhibition at 0.5 µM at recombinant human CK2 is 90.8%; on recombinant human PIM1 it was 3.73%. The IC50 in assay [1] came out at 0.902 µM; with K-562, 7.2 µM; with MV-4-11 it was 1.54 µM.

Regarding `C#Cc1cccc(Nc2nc3cc(C(=O)O)ccc3c3ncccc23)c1`, the inhibition at 0.5 µM at recombinant human CK2 is 77.5%; at recombinant human PIM1 it was 34.9%. Also, the IC50 (in assay [1]; in the assay with K-562; in the assay with MV-4-11) was more than 10 µM throughout.

Consider `N#Cc1ccc2c(c1)nc(Cl)c1cscc12`, for which the inhibition at 0.5 µM is -6.52% on recombinant human CK2 and -20.3% at recombinant human PIM1. Besides, the results for the IC50 (in assay [1]; with K-562; with MV-4-11) were more than 10 µM, more than 10 µM and 1.81 µM, respectively.

For `COC(=O)c1ccc2c(c1)nc(NCCn1cccc1)c1ccncc12`, the inhibition at 0.5 µM on recombinant human CK2 is 9.01%; at recombinant human PIM1, -34.6%. The figures for the IC50 (in assay [1]; in the assay on K-562; in the assay with MV-4-11) were 9.97 µM, more than 10 µM and 2.83 µM, respectively.

`CN1CCCC(Nc2nc3cc(-c4nnn[nH]4)ccc3c3sccc23)C1` (centres unmarked): the inhibition at 0.5 µM on recombinant human CK2 turned out to be 31.4%; on recombinant human PIM1, 90.9%. Also, the IC50 was more than 10 µM in assay [1], 0.109 µM at recombinant human PIM1, more than 10 µM with K-562 and 0.658 µM in the assay with MV-4-11.

Take `N#Cc1ccc2c(c1)nc(N1CCC(N3CCOCC3)CC1)c1ccsc12`: the inhibition at 0.5 µM on recombinant human CK2 was -34.7%; at recombinant human PIM1, 0.408%. Further, the IC50 (in assay [1]; with K-562; in the assay with MV-4-11) was more than 10 µM throughout.

For `CC(C)(C)OC(=O)N1CCC(Nc2nc3cc(C#N)ccc3c3sccc23)CC1`, the inhibition at 0.5 µM was 1.98% on recombinant human CK2 and 2.44% on recombinant human PIM1. The IC50 (in assay [1]; in the assay with K-562; in the assay on MV-4-11) was more than 10 µM each time.

`O=C(O)c1ccc2c(c1)nc(Nc1cccc(F)c1)c1cccnc12`: the inhibition at 0.5 µM was determined as 35% at recombinant human CK2 and 37.8% at recombinant human PIM1. Besides, the IC50 (in assay [1]; in the assay on K-562; in the assay on MV-4-11) was more than 10 µM each time.

Turning to `O=C(O)c1ccc2c(c1)nc(Nc1ccc3ncccc3c1)c1ccncc12`, the inhibition at 0.5 µM at recombinant human CK2 came out at 101%; on recombinant human PIM1 it was 93.9%. For the same molecule, the IC50 is more than 10 µM in assay [1], 0.089 µM on recombinant human PIM1, more than 10 µM in the assay with K-562 and 3.2 µM with MV-4-11.

As to `N#Cc1ccc2c(c1)nc(NCC(O)c1ccccc1)c1ccsc12` (centres unmarked), the results for the inhibition at 0.5 µM on recombinant human CK2 and at recombinant human PIM1 were -9.58% and 6.38%, respectively. The IC50 (in assay [1]; with K-562; in the assay with MV-4-11) was more than 10 µM throughout.

In the case of `CN1CCCC1CNc1nc2cc(C#N)ccc2c2sccc12` (centres unmarked), the figures for the inhibition at 0.5 µM at recombinant human CK2 and on recombinant human PIM1 were 0.724% and 8.14%, respectively. Moreover, the results for the IC50 (in assay [1]; in the assay with K-562; in the assay with MV-4-11) were 4.41 µM, 6.5 µM and 3.74 µM, respectively.

Consider `CN(C)CCNc1nc2cc(C(=O)NC3CC3)ccc2c2sccc12`, for which the inhibition at 0.5 µM on recombinant human CK2 was 1.39%; on recombinant human PIM1, 13.7%. Further, the IC50 is 2.34 µM in assay [1], 1.89 µM in the assay with K-562 and more than 10 µM in the assay on MV-4-11.

On to `CC(C)OCCCNc1nc2cc(C(=O)O)ccc2c2cnccc12`, for which the inhibition at 0.5 µM on recombinant human CK2 was 98.5%; at recombinant human PIM1, 60.8%. Moreover, the IC50 is more than 10 µM in assay [1], 0.402 µM at recombinant human PIM1, more than 10 µM in the assay on K-562 and 7.01 µM in the assay with MV-4-11.

On to `FC(F)(F)c1cccc(Nc2nc3cc(-c4nnn[nH]4)ccc3c3cscc23)c1`, for which the inhibition at 0.5 µM was 23.1% on recombinant human CK2 and -6.51% at recombinant human PIM1. Moreover, the IC50 (in assay [1]; in the assay on K-562; with MV-4-11) was more than 10 µM throughout.

`CN1CCC(N(C)c2nc3cc(C#N)ccc3c3sccc23)C1` (centres unmarked): the values for the inhibition at 0.5 µM at recombinant human CK2 and on recombinant human PIM1 were -14.1% and -6.14%, respectively. Also, the IC50 in assay [1] is 4.65 µM; in the assay on K-562, more than 10 µM; with MV-4-11, 7.87 µM.

`Clc1cccc(Nc2nc3cc(-c4nnn[nH]4)ccc3c3cscc23)c1`: the inhibition at 0.5 µM was 63.3% at recombinant human CK2 and 17.9% on recombinant human PIM1. Further, the IC50 (in assay [1]; in the assay on K-562; in the assay with MV-4-11) was more than 10 µM throughout.

Consider `NC(=O)c1cccc(Nc2nc3cc(C(=O)O)ccc3c3cnccc23)c1`, for which the results for the inhibition at 0.5 µM on recombinant human CK2 and on recombinant human PIM1 were 101% and 74.8%, respectively. Also, the IC50 was more than 10 µM in assay [1], 0.16 µM on recombinant human PIM1, more than 10 µM in the assay on K-562 and more than 10 µM in the assay with MV-4-11.

In the case of `COc1ccc(Nc2nc3cc(C(=O)O)ccc3c3cnccc23)cc1OC`, the inhibition at 0.5 µM at recombinant human CK2 worked out at 98.5%; on recombinant human PIM1 it was 59.3%. For the same molecule, the IC50 was more than 10 µM in assay [1], 0.311 µM on recombinant human PIM1, more than 10 µM in the assay with K-562 and more than 10 µM in the assay with MV-4-11.

For the molecule `Fc1cc(F)cc(Nc2nc3cc(-c4nnn[nH]4)ccc3c3cscc23)c1`, the inhibition at 0.5 µM came out at 52.6% at recombinant human CK2 and 11.1% at recombinant human PIM1. For the same molecule, the IC50 (in assay [1]; with K-562; in the assay with MV-4-11) was more than 10 µM each time.

Regarding `c1ccc(Nc2nc3ccccc3c3cnccc23)cc1`, the inhibition at 0.5 µM at recombinant human CK2 worked out at 0.786%; at recombinant human PIM1, 7%. For the same molecule, the IC50 in assay [1] is more than 10 µM; in the assay with K-562 it was more than 10 µM; with MV-4-11, 7.04 µM.

In the case of `CN1CCC(Nc2nc3cc(C#N)ccc3c3sccc23)CC1`, the figures for the inhibition at 0.5 µM at recombinant human CK2 and at recombinant human PIM1 were -8.22% and 59.1%, respectively. Moreover, the IC50 is 3.44 µM in assay [1], 1.03 µM at recombinant human PIM1, more than 10 µM in the assay with K-562 and 7.52 µM in the assay on MV-4-11.

`CC(C)(C)OC(=O)N1CCCC1CCNc1nc2cc(C#N)ccc2c2sccc12` (centres unmarked): the inhibition at 0.5 µM at recombinant human CK2 is -22.4%; on recombinant human PIM1, -13%. For the same molecule, the IC50 (in assay [1]; in the assay with K-562; in the assay with MV-4-11) was more than 10 µM each time.
